Assay results taken from patent US20070060639A1, “Compositions and methods for intranasal delivery of tricyclic cannabinoids” (University of Kentucky, priority 2005, published 2007).
Where two headings read alike, the source gives them in different places.

Tests used:
[1] = intranasally at 1.14-1.33 mg/kg, rat model, period from 15 to 120 minutes after administration; cited from earlier work
[2] = rat; for F: F = (AUCIN × DoseIV)/(AUCIV × DoseIN); for concentration at 0 minutes / concentration at 0.5 minutes / concentration at 5 minutes / concentration at 15 minutes / concentration at 30 minutes / concentration at 60 minutes / concentration at 120 minutes / concentration at 160 minutes / concentration at 240 minutes / concentration at 300 minutes / concentration at 360 minutes / concentration at 420 minutes / concentration at 480 minutes: Mean plasma concentration of THC
[3] = male, Sprague-Dawley, plasma, inhaled or intranasal, 9.84 mg/kg
[4] = male, Sprague-Dawley, plasma, inhaled or intranasal, 9.91 mg/kg
[5] = male, Sprague-Dawley, plasma, iv, 0.99 mg/kg
[6] = male, Sprague-Dawley, plasma, iv, 1 mg/kg, Intravenous (1 mg/kg), propylene glycol, n = 3, rat
[7] = male, Sprague-Dawley, plasma, other: intranasal, 10 mg/kg, Intranasal (10 mg/kg), 90:10 propylene glycol/ethanol, n = 5, rat
[8] = male, Sprague-Dawley, plasma, other: intranasal, 10 mg/kg, Intranasal (10 mg/kg), propylene glycol, n = 3, rat

**Q.** With CCCCCc1cc(O)c2c(c1)OC(C)(C)[C@@H]1CCC(C)=C[C@@H]21 [THC, delta-9-tetrahydrocannabinol] as the molecule, how does the analgesic response [1] read?
**A.** The analgesic response was “an analgesic response was observed”.

**Q.** And the F ([2]; Intranasal (IN), 90:10 propylene glycol/ethanol, 9.91 mg/kg)?
**A.** Its F is 0.138.

**Q.** And the F ([2]; Intranasal (IN), propylene glycol, 9.84 mg/kg)?
**A.** The F was 0.136.

**Q.** And the F ([2]; Intravenous (IV), propylene glycol, 0.99 mg/kg)?
**A.** The F was 1.

**Q.** And the AUC [2, 3]?
**A.** The AUC was 428 ng·h/mL.

**Q.** And the Cmax [2, 3]?
**A.** Its Cmax is 55 ng/mL.

**Q.** And the Tmax [2, 3]?
**A.** Its Tmax is 3 h.

**Q.** What about the AUC [2, 4] of the same molecule?
**A.** The AUC was 434 ng·h/mL.

**Q.** What about the Cmax [2, 4] of the same molecule?
**A.** The Cmax was 75 ng/mL.

**Q.** And the Tmax [2, 4]?
**A.** Its Tmax is 2 h.

**Q.** And the AUC [2, 5]?
**A.** Its AUC is 314 ng·h/mL.

**Q.** What about the Cmax [2, 5] of the same molecule?
**A.** Its Cmax is 693 ng/mL.

**Q.** And the Tmax [2, 5]?
**A.** Its Tmax is 0.0083 h.

**Q.** What about the concentration at 0 minutes [2, 6] of the same molecule?
**A.** Its concentration at 0 minutes is 0 ng/mL.

**Q.** What about the concentration at 0.5 minutes [2, 6] of the same molecule?
**A.** Its concentration at 0.5 minutes is 693 ng/mL.

**Q.** And the concentration at 5 minutes [2, 6]?
**A.** Its concentration at 5 minutes is 136 ng/mL.

**Q.** And the concentration at 15 minutes [2, 6]?
**A.** The concentration at 15 minutes was 73 ng/mL.

**Q.** What about the concentration at 30 minutes [2, 6] of the same molecule?
**A.** Its concentration at 30 minutes is 48 ng/mL.

**Q.** And the concentration at 60 minutes [2, 6]?
**A.** The concentration at 60 minutes was 34 ng/mL.

**Q.** What about the concentration at 120 minutes [2, 6] of the same molecule?
**A.** The concentration at 120 minutes was 24 ng/mL.

**Q.** And the concentration at 160 minutes [2, 6]?
**A.** The concentration at 160 minutes was 23 ng/mL.

**Q.** And the concentration at 240 minutes [2, 6]?
**A.** Its concentration at 240 minutes is 21 ng/mL.

**Q.** And the concentration at 300 minutes [2, 6]?
**A.** The concentration at 300 minutes was 18 ng/mL.

**Q.** And the concentration at 360 minutes [2, 6]?
**A.** The concentration at 360 minutes was 22 ng/mL.

**Q.** And the concentration at 420 minutes [2, 6]?
**A.** The concentration at 420 minutes was 25 ng/mL.

**Q.** What about the concentration at 480 minutes [2, 6] of the same molecule?
**A.** Its concentration at 480 minutes is 12 ng/mL.

**Q.** What about the bioavailability ([2]; male, Sprague-Dawley, plasma, other: intranasal, 10 mg/kg) of the same molecule?
**A.** Its bioavailability is roughly 14%.

**Q.** And the concentration at 0 minutes [2, 7]?
**A.** The concentration at 0 minutes was 0 ng/mL.

**Q.** And the concentration at 0.5 minutes [2, 7]?
**A.** Its concentration at 0.5 minutes is 0 ng/mL.

**Q.** What about the concentration at 5 minutes [2, 7] of the same molecule?
**A.** Its concentration at 5 minutes is 0 ng/mL.

**Q.** What about the concentration at 15 minutes [2, 7] of the same molecule?
**A.** Its concentration at 15 minutes is 24 ng/mL.

**Q.** What about the concentration at 30 minutes [2, 7] of the same molecule?
**A.** The concentration at 30 minutes was 43 ng/mL.

**Q.** And the concentration at 60 minutes [2, 7]?
**A.** The concentration at 60 minutes was 59 ng/mL.

**Q.** What about the concentration at 120 minutes [2, 7] of the same molecule?
**A.** Its concentration at 120 minutes is 75 ng/mL.

**Q.** And the concentration at 160 minutes [2, 7]?
**A.** The concentration at 160 minutes was 54 ng/mL.

**Q.** And the concentration at 240 minutes [2, 7]?
**A.** The concentration at 240 minutes was 24 ng/mL.

**Q.** What about the concentration at 300 minutes [2, 7] of the same molecule?
**A.** The concentration at 300 minutes was 20 ng/mL.

**Q.** What about the concentration at 360 minutes [2, 7] of the same molecule?
**A.** The concentration at 360 minutes was 19 ng/mL.

**Q.** What about the concentration at 420 minutes [2, 7] of the same molecule?
**A.** Its concentration at 420 minutes is 16 ng/mL.

**Q.** And the concentration at 480 minutes [2, 7]?
**A.** Its concentration at 480 minutes is 11 ng/mL.

**Q.** What about the concentration at 0 minutes [2, 8] of the same molecule?
**A.** Its concentration at 0 minutes is 0 ng/mL.

**Q.** What about the concentration at 0.5 minutes [2, 8] of the same molecule?
**A.** The concentration at 0.5 minutes was 0 ng/mL.

**Q.** What about the concentration at 5 minutes [2, 8] of the same molecule?
**A.** The concentration at 5 minutes was 0 ng/mL.

**Q.** And the concentration at 15 minutes [2, 8]?
**A.** Its concentration at 15 minutes is 3 ng/mL.

**Q.** What about the concentration at 30 minutes [2, 8] of the same molecule?
**A.** The concentration at 30 minutes was 13 ng/mL.

**Q.** What about the concentration at 60 minutes [2, 8] of the same molecule?
**A.** The concentration at 60 minutes was 26 ng/mL.

**Q.** What about the concentration at 120 minutes [2, 8] of the same molecule?
**A.** The concentration at 120 minutes was 38 ng/mL.

**Q.** And the concentration at 160 minutes [2, 8]?
**A.** Its concentration at 160 minutes is 36 ng/mL.

**Q.** And the concentration at 240 minutes [2, 8]?
**A.** Its concentration at 240 minutes is 51 ng/mL.

**Q.** And the concentration at 300 minutes [2, 8]?
**A.** Its concentration at 300 minutes is 19 ng/mL.

**Q.** What about the concentration at 360 minutes [2, 8] of the same molecule?
**A.** Its concentration at 360 minutes is 17 ng/mL.

**Q.** And the concentration at 420 minutes [2, 8]?
**A.** Its concentration at 420 minutes is 16 ng/mL.

**Q.** And the concentration at 480 minutes [2, 8]?
**A.** The concentration at 480 minutes was 16 ng/mL.
